Source: paper PMC10716126, “Enzyme mechanistic studies of NMA1982, a protein tyrosine phosphatase and potential virulence factor in Neisseria meningitidis” (Scientific Reports, 2023)

What was measured:
[1] = target: T1, NMA1982 (Neisseria meningitidis, UniProt A1KVD0)
T1 construct: gene NMC1647

[2] = target: T1, NMA1982; remark: listed apart in the source

T1 sequence (A1KVD0 entry or part of it): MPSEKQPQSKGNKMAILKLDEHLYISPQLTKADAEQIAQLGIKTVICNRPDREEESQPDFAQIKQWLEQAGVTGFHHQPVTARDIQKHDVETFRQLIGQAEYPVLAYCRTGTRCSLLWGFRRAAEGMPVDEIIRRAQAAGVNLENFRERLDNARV

| SMILES | Km [1] [µM] | IC50 [2] [µM] |
| --- | --- | --- |
| Cc1cc(=O)oc2c(F)c(OP(=O)(O)O)c(F)cc12 [DiFMUP] | 35 |  |
| [O]=[V]([OH])([OH])[OH] [sodium orthovanadate] |  | 161 |
